Measurements as given in publication PMC3499368, “Evolution of Minimal Specificity and Promiscuity in Steroid Hormone Receptors” (PLoS Genetics, 2012).
Read-outs that look alike come from different tables or passages of the source. Blank lines part the entries; values can stand above or below the compound they belong to.

Assays:
[1] = tested on: AncSR1; assay: luciferase reporter assay, inhibition of AncSR1 in the presence of estradiol; format: cell-based; conditions: with estradiol
[2] = tested on: AncSR2; assay: luciferase reporter assay, inhibition of AncSR2 in the presence of EC80 11-deoxycorticosterone; conditions: in the presence of EC80 11-deoxycorticosterone (1.7 nM)
[3] = tested on: AncSR1-LBD; assay: luciferase reporter gene assay, Gal4-DBD fusion of AncSR1-LBD in CHO-K1 cells, activation; format: cell-based
Excerpt: (§1) To experimentally test these hypotheses, we synthesized cDNAs for the AncSR1 and AncSR2 LBD protein sequences, expressed them as Gal4-DBD fusion constructs, and characterized their sensitivity to hormones using luciferase reporter gene assays.

[4] = tested on: AncSR2-LBD; assay: luciferase reporter gene assay, Gal4-DBD fusion of AncSR2-LBD in CHO-K1 cells, activation; format: cell-based; conditions: for EC50: AncSR2, representative dose activation curves (Fig. S4) and Table S5 sections c-i
Excerpt: as §1, with “assays. […] It was unresponsive to a broad array of androgens, progestagens, and corticosteroids, as well as cholesterol (Figure 2A, Figure S3).” for “assays.”
For AncSR2, we identified all plausible alternate reconstructions (those with posterior probability >0.20 excluding biochemically similar K/R, D/E, S/T, and I/L differences) and introduced each alternate state individually into the AncSR2 background using the Quikchange Mutagenesis kit (Stratagene), verified clones by sequencing, and repeated the activation assays with each version of AncSR2 (Figure S6). The ML AncSR2 sequence reconstructed on the ML tree had high baseline activation in the absence of ligand; this phenotype is almost certainly an artifact, because constitutive baseline activity is not present in any of AncSR2's extant descendants; it is well-established that some amino acid replacements can cause nuclear receptors to become constitutive by marginally stabilizing the active conformation in the absence of hormone. […] The “constitutive” Leu79 state is weakly supported on the ML tree (PP = 0.59), and has no support (PP = 0.00) on the phylogeny that is most parsimonious in terms of gene duplications and losses; in contrast, the “non-constitutive” state Met79 has PP = 0.41 on the ML tree and PP = 1.00 on the rearranged gene duplication/loss tree (Figure S12, Table S8). The AncSR2 sequence used for all experiments reported in the text therefore contains state Met79. The other alternate reconstructions were then reintroduced into this AncSR2 sequence: none qualitatively changed the receptor's sensitivity to the various classes of steroid hormones, except for A171V, which conferred constitutive activity (Figure S6).

[5] = target: T1, human estrogen receptor alpha (hERα) (Homo sapiens, UniProt P03372); assay: luciferase reporter assay, human ERα LBD; format: cell-based; conditions: Fig. S8
T1 sequence (P03372 311-595 limits assumed): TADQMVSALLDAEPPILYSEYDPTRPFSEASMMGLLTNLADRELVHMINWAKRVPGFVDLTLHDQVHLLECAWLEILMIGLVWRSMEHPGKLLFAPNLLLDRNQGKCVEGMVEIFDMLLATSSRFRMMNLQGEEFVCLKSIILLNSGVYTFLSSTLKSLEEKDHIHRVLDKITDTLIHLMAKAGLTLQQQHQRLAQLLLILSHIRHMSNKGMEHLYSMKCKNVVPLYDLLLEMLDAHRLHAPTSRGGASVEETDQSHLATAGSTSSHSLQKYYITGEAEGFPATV

[6] = target: T2, estrogen receptor ligand binding domain (Capitella capitata, UniProt C0IRV2); assay: activation of the estrogen receptor ligand binding domain of Capitella capitata
T2 sequence (C0IRV2 151-381): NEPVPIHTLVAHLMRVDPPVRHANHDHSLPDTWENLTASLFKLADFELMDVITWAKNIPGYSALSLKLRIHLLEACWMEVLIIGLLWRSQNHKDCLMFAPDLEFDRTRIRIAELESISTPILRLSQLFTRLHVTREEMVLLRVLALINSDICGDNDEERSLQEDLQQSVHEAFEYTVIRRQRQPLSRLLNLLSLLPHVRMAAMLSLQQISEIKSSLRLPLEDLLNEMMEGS
Excerpt: (§5) Fig. S8 Activation of the estrogen receptor ligand binding domains of two annelids (Capitella capitata, a polychaete worm &
(§6) Values adjacent to the hormone legends (red squares and black triangles) indicate the EC50 value for

[7] = target: T3, estrogen receptor ligand binding domain (Platynereis dumerilii, UniProt C0IR13); assay: activation of the estrogen receptor ligand binding domain of Platynereis dumerilii
T3 sequence (C0IR13 197-482): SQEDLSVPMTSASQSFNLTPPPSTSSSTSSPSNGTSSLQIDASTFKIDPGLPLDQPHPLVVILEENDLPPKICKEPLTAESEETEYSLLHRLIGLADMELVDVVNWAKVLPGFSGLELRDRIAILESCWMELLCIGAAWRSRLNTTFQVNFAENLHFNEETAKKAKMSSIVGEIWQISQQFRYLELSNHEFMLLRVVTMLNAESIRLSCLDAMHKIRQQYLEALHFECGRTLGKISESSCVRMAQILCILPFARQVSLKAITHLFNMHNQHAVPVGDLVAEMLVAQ
Excerpt: as §5, §6

[8] = tested on: AncSR1_Alt1; assay: luciferase reporter assay, alternative reconstruction AncSR1_Alt1; format: cell-based; conditions: Alt1, Fig. S5B
Excerpt: (§2) To determine the robustness of functional inferences to statistical uncertainty in the reconstruction of AncSR1 and AncSR2, we used two approaches. AncSR1 had too many ambiguously reconstructed sites to examine each such residue individually, so we computationally sampled from the posterior probability distribution of reconstructed amino acid states to generate a cloud of possible ancestral sequences, each harboring a large number of alternate states. Specifically, we generated 1,000,000 possible ancestral sequences by sampling from the posterior probability distribution of states at each site. […] We synthesized these five radically alternative ancestral reconstructions de novo and repeated the functional assays.
(§3) A) Distribution of posterior probabilities of 1 million protein sequences assembled by sampling amino acid states at each site from the posterior probability distribution for AncSR1 LBD. The ML reconstruction (AncSR1-ML) and the five alternative sequences with the highest posterior probability (Alt1-Alt5) in the 1 million samples are […]
(§4) The column height and error bars indicate the mean and SEM of three independent experiments, respectively. […]

[9] = tested on: AncSR1_Alt2; assay: luciferase reporter assay, alternative reconstruction AncSR1_Alt2; format: cell-based; conditions: Alt2, Fig. S5B
Excerpt: as §2, §3, §4

[10] = tested on: AncSR1_Alt3; assay: luciferase reporter assay, alternative reconstruction AncSR1_Alt3; format: cell-based; conditions: Alt3, Fig. S5B
Excerpt: as §2, §3, §4

[11] = tested on: AncSR1_Alt4; assay: luciferase reporter assay, alternative reconstruction AncSR1_Alt4; format: cell-based; conditions: Alt4, Fig. S5B
Excerpt: as §2, §3, §4

[12] = tested on: AncSR1_Alt5; assay: luciferase reporter assay, alternative reconstruction AncSR1_Alt5; format: cell-based; conditions: Alt5, Fig. S5B
Excerpt: as §2, §3, §4

[13] = target: T4, human mineralocorticoid receptor (hMR) (Homo sapiens, UniProt P08235); assay: luciferase reporter assay, human MR LBD; format: cell-based
T4 sequence (P08235 736-984): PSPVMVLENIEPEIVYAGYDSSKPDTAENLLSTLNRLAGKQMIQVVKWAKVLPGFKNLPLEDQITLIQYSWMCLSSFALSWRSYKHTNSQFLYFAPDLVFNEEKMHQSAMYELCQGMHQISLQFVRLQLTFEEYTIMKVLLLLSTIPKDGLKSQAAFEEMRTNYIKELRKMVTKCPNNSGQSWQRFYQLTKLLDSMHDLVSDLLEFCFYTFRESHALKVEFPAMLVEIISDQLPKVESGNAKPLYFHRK

[14] = AncSR1, representative dose activation curves (Fig. S3) and Table S5 section b
[15] = AncSR2, Table S5 section c, pairs H1/H2: 23/8, 19/18, listed as given under Hormone 1

Compound: CC(=O)[C@H]1CCC2C3CCc4cc(O)ccc4C3CC[C@@]21C (stereo partly shown) [NPT, 19-nor-1,3, 5(10)-pregnatriene-3-ol-20-one]
EC50 [3, 14]: 179 nM
activation of AncSR1 (in words) ([3]; luciferase reporter): almost as potent an AncSR1 activator as endogenous estrogens
Ratio H1/H2 of EC50, preference for non-aromatized A-ring [4, 15]: 113.75
Ratio H2/H1 of EC50, preference for non-aromatized A-ring [4, 15]: 0.01
EC50 [4]: 182 nM
EC50 [5]: 5.4 nM
EC50 [6]: 8.7 nM
EC50 [7]: 1.2 nM

Compound: C[C@]12CC[C@@H]3c4ccc(O)cc4CC[C@H]3[C@@H]1CC[C@@H]2O [estradiol]
EC80 ([3]; AncSR1, estradiol concentration used in inhibition assay): 200 nM
EC50 [3, 14]: 49 nM
EC50 ([3]; AncSR1-ML, Fig. S5B): 66 nM
EC50 ([4]; read-out: EC50): > 10000 nM
EC50 [8]: 50 nM
EC50 [9]: 350 nM
EC50 [10]: 12 nM
EC50 [11]: 316 nM
EC50 [12]: 94 nM
EC50 [6]: 8.6 nM
EC50 [7]: 12 nM

Compound: C[C@]12CCC(=O)C=C1CC[C@@H]1[C@@H]2[C@@H](O)C[C@@]2(C)[C@H]1CC[C@]2(O)C(=O)CO [cortisol]
EC50 ([4]; read-out: EC50): 9.8 nM
EC50 [13]: 37 nM

The next lines start with results.

inhibition of AncSR1 (in words) [1]: competitively inhibited
Compound: CC/C(=C(\c1ccc(O)cc1)c1ccc(OCCN(C)C)cc1)c1ccccc1 [4-hydroxytamoxifen, 4-Hydroxytamoxifen]
inhibition of AncSR2 (in words) [2]: not inhibited

inhibition of AncSR1 (in words) [1]: competitively inhibited
Compound: C[C@]12CC[C@@H]3c4ccc(O)cc4C[C@@H](CCCCCCCCC[S+]([O-])CCCC(F)(F)C(F)(F)F)[C@H]3[C@@H]1CC[C@@H]2O (stereo partly shown) [ICI 182,780, fulvestrant]
inhibition of AncSR2 (in words) [2]: not inhibited
